{"source": "ChEMBL document CHEMBL1201862", "about": "“PubChem BioAssay data set” (2004)", "key": {"[1]": {"target": "Cyclin-dependent kinase 5/CDK5 activator 1 (Homo sapiens, UniProt Q00535)", "sequence (Q00535 whole entry)": "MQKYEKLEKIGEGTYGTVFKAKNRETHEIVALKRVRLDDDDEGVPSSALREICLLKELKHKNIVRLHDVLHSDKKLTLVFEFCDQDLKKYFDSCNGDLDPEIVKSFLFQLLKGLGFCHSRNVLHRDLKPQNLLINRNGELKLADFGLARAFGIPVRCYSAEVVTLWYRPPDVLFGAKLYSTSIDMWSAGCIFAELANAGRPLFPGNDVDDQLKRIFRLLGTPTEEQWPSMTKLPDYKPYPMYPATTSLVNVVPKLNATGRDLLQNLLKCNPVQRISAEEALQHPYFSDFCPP", "sequence (Q15078 whole entry, further chain)": "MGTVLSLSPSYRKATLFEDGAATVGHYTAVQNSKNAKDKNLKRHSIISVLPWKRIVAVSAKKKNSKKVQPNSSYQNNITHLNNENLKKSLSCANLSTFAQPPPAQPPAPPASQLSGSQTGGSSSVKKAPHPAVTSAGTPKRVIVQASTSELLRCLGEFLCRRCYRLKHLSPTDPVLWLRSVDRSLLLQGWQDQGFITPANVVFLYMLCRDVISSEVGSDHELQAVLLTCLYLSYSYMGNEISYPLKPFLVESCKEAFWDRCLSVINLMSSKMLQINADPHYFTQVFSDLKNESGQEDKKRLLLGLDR", "test": "CDK5/p35 kinase inhibitors, dose response, biochemical, cherry-picked samples, set 2 (AID 504545)"}, "Cytochrome P450 2C9": {"target": "Cytochrome P450 2C9 (Homo sapiens, UniProt P11712)", "sequence (P11712 whole entry)": "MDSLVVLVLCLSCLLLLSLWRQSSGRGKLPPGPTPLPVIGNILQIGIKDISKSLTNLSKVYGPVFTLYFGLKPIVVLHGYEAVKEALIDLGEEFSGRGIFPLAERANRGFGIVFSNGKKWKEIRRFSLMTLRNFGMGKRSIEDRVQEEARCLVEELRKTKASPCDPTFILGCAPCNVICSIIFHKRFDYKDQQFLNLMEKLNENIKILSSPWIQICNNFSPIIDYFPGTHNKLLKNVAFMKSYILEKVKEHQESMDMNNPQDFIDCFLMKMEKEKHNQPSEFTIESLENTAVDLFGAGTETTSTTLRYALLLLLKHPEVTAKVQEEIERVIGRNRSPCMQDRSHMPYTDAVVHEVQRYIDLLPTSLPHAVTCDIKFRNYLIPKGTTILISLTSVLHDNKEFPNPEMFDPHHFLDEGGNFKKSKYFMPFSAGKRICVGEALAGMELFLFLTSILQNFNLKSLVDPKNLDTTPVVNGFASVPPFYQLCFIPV", "conditions": "Potency"}, "[2]": {"target": "T1, Eukaryotic translation initiation factor 2-alpha kinase 3 (Homo sapiens, UniProt Q9NZJ5)", "T1 sequence (Q9NZJ5 whole entry)": "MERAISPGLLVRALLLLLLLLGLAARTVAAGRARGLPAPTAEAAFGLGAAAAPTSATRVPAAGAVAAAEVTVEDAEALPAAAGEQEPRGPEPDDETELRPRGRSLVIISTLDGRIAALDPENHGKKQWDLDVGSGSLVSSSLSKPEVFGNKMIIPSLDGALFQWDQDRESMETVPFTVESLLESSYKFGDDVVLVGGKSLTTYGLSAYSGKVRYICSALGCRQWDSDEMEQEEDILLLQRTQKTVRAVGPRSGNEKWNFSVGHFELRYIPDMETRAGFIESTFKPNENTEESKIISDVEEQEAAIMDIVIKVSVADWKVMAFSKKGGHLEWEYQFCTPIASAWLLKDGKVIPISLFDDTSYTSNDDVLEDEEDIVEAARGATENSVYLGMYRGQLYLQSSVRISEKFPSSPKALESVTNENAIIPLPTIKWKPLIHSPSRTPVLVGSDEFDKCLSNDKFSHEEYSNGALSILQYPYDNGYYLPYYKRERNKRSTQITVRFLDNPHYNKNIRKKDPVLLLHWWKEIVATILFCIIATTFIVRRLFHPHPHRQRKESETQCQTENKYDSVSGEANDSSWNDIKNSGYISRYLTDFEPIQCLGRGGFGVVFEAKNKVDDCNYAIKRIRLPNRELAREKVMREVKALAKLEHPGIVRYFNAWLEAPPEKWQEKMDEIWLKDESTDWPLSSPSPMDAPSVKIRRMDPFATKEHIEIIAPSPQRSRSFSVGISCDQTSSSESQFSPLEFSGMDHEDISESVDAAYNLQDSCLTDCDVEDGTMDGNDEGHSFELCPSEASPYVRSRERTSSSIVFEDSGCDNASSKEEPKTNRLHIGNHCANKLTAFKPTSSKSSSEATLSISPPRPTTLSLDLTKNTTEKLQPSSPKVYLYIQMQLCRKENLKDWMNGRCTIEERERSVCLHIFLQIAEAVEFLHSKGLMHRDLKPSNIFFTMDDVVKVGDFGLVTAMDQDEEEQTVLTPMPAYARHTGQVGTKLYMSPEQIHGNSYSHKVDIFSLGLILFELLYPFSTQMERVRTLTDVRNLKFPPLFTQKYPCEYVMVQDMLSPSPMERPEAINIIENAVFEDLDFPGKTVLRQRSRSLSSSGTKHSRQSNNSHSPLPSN", "test": "Counterscreen assay for PERK inhibitors: Dose response cell-based high throughput screening assay to measure inhibition of PERK at 6 hours. [Related pubchem assays: 1522, 1416 ]", "format": "functional"}, "[3]": {"target": "T1, Eukaryotic translation initiation factor 2-alpha kinase 3", "test": "Dose response cell-based high-throughput screening assay to measure PERK inhibition. [Related pubchem assays: 1416 ]", "format": "functional"}, "Leucine aminopeptidase": {"target": "T2, Leucine aminopeptidase (Plasmodium falciparum 3D7, UniProt Q8IL11)", "T2 sequence (Q8IL11 whole entry)": "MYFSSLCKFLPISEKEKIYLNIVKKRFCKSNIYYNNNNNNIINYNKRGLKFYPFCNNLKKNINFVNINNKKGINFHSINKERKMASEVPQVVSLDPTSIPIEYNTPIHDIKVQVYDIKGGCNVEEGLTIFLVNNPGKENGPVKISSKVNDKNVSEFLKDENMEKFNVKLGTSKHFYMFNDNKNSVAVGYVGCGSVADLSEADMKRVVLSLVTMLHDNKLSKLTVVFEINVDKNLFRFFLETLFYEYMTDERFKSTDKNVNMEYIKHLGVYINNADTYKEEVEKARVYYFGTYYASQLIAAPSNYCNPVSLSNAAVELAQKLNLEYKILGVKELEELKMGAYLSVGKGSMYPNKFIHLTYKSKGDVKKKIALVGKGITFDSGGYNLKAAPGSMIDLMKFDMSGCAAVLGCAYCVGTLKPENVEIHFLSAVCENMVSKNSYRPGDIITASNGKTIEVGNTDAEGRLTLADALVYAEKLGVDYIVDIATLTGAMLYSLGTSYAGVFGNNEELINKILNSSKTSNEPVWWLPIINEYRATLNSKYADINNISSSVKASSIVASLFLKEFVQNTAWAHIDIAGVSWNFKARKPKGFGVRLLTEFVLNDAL", "test": "P. falciparum M17LAP inhibitors, primary screen, biochemical, fluorogenic H-Leu-NHMec substrate, 1536-well (AID 1619)", "format": "functional"}, "[4]": {"test": "Cytotoxicity screening for potential Inhibitors of Bacterial Capsule Biogenesis. [Related pubchem assays (depositor defined):AID488970]", "format": "functional"}, "[5]": {"target": "T3, Dual specificity protein phosphatase 6 (Rattus norvegicus, UniProt Q64346)", "T3 sequence (Q64346 whole entry)": "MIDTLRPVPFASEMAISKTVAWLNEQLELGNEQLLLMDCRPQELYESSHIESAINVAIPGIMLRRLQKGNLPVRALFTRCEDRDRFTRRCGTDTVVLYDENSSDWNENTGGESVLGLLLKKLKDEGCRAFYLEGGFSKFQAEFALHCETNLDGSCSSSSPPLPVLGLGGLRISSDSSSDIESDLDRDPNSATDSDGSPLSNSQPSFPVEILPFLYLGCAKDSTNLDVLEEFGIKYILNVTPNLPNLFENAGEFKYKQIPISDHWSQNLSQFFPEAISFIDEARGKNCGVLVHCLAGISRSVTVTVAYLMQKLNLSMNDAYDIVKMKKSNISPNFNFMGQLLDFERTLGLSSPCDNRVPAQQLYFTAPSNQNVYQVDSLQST", "format": "functional"}, "[6]": {"target": "T4, Tyrosine-protein phosphatase non-receptor type 7 (Homo sapiens, UniProt P35236)", "T4 sequence (P35236 whole entry)": "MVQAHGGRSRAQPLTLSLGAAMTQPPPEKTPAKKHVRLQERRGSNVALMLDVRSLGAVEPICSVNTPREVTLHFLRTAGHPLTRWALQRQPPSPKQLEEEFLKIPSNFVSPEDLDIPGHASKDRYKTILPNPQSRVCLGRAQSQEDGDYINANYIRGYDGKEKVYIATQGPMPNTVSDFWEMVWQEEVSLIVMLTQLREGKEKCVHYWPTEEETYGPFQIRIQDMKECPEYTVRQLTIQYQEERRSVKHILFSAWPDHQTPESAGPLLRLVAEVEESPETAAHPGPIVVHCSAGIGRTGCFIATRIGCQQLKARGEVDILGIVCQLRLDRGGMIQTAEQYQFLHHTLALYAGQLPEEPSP", "format": "functional"}, "[7]": {"target": "Heat shock cognate 71 kDa protein (Homo sapiens, UniProt P11142)", "sequence (P11142 whole entry)": "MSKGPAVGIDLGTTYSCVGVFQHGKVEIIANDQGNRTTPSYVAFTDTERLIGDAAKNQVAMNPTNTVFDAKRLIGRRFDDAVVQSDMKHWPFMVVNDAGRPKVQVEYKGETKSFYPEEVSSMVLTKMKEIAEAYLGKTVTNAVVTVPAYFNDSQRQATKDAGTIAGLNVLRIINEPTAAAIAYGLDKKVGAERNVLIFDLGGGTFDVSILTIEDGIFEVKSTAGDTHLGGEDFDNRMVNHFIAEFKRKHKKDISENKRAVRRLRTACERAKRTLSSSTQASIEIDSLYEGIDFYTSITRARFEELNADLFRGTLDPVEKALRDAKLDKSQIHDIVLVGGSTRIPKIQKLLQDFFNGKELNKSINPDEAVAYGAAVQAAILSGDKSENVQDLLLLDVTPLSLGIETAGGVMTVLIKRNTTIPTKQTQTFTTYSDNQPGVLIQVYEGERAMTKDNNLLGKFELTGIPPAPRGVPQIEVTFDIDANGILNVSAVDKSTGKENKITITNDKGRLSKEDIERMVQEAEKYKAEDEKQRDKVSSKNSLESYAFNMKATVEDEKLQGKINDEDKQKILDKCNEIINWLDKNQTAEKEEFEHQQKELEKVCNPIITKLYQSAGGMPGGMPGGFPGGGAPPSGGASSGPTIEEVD", "test": "In Vitro Hsc70 Dose Response Fluorescence Polarization Assay. [Related pubchem assays: 1072 ]"}, "[8]": {"target": "Glyceraldehyde-3-phosphate dehydrogenase (Homo sapiens, UniProt P04406)", "sequence (P04406 whole entry)": "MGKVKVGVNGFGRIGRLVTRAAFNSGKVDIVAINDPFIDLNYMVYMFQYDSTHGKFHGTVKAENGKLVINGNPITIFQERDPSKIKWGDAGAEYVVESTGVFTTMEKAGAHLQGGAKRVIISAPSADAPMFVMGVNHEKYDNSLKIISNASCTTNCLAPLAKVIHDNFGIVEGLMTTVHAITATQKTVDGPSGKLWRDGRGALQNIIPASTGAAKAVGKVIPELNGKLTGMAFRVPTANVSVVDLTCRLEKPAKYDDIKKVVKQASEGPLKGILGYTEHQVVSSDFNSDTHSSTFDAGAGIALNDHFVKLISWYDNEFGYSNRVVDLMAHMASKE"}, "[9]": {"target": "T3, Dual specificity protein phosphatase 6"}, "[10]": {"target": "Heat shock 70 kDa protein 1A (Homo sapiens, UniProt P0DMV8)", "sequence (P0DMV8 whole entry)": "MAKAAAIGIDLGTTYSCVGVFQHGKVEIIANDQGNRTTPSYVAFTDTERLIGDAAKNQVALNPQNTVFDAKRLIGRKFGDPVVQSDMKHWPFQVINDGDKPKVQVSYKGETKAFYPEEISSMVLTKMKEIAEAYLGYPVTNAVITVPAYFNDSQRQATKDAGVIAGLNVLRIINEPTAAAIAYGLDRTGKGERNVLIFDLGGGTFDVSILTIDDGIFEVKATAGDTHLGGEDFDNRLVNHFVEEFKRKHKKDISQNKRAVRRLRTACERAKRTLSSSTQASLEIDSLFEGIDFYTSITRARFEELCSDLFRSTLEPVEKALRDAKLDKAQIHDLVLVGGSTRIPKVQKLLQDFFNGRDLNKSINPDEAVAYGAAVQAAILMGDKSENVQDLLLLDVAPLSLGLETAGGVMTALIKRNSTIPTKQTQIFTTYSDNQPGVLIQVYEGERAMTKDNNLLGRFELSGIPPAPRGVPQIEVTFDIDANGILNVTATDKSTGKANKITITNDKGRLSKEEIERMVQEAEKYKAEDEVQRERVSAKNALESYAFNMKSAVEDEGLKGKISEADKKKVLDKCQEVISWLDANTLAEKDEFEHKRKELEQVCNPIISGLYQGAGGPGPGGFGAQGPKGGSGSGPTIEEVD", "test": "Hsp70 inhibitors, SAR follow-up, biochemical, fluorescence polarization (AID 1072)"}, "INS1": {"tested_on": "INS1", "test": "beta cell apoptosis inhibitors, cytokine rescue, dose response, luminescence, retest (AID 449756);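 also: cell death triggered by IL-1 beta plus TNF-alpha plus IFN-gamma mixture; protective hits raise ATP signal compared with cytokine alone wells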", "format": "functional, cell-based", "conditions": "Rattus norvegicus"}, "cells [11]": {"test": "cells", "format": "functional, cell-based"}, "[12]": {"test": "Vero E6 cell cytotoxicity, dose response, cytotoxicity control for non-replicating M. tuberculosis project, secondary assay (AID 492998)", "format": "functional, VeroE6", "conditions": "Vero C1008"}, "[13]": {"target": "T5, Microphthalmia-associated transcription factor (Homo sapiens, UniProt O75030)", "T5 sequence (O75030 whole entry)": "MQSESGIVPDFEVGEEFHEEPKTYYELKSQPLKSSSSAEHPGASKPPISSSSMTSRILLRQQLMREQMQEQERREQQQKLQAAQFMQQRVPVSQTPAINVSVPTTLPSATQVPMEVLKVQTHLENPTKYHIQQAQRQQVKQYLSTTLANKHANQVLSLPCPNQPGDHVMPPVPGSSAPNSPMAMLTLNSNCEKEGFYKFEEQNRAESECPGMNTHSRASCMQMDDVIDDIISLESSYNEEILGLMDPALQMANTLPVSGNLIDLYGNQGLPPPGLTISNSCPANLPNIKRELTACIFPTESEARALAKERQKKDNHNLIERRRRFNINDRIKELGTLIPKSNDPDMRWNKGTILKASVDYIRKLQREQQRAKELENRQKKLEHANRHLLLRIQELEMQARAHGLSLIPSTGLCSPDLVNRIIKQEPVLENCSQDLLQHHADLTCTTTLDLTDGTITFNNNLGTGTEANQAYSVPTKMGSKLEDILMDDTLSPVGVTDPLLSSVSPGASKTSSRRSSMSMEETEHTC", "test": "TRPM1 promoter luciferase signal decrease, dose response, MITF inhibitor project, cell-based, SK-MEL-5, cherry-picked, set 3 (AID 493073)", "format": "functional"}, "[14]": {"test": "THP-1 cell cytotoxicity, dose response, cytotoxicity control for non-replicating M. tuberculosis project (AID 489025)", "format": "functional"}, "[15]": {"test": "cytotoxicity in HEK-293T cells, dose response, cytotoxicity control for TCR NF-kB inhibitor project, luminescence, T-cell screen hits (AID 489026);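 also: cells exposed to compound about 14 hours before the viability readout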", "format": "functional, cell-based"}, "[16]": {"test": "HepG2 cell cytotoxicity, dose response, cytotoxicity control for non-replicating M. tuberculosis project (AID 489018)", "format": "functional", "conditions": "Mycobacterium tuberculosis"}, "[17]": {"test": "Luminescence Cell-Based Dose Response HTS to Identify Inhibitors of 5'UTR Stem-Loop Driven Prion Protein mRNA Translation in H4 Neuroglioblastoma Cells. [Related pubchem assays: 1827 (Project Summary), 1813 (Primary HTS)]", "format": "functional"}, "HEK293": {"tested_on": "HEK293", "test": "inhibitors of LMP1-driven NF-kB reporter, dose response, cell-based, HEK293, luciferase, cherry-pick (AID 588343)", "format": "functional", "conditions": "Homo sapiens"}, "cells [18]": {"test": "cells", "format": "functional, cell-based", "remark": "listed apart in the source"}, "[19]": {"test": "Luminescence-based counterscreen assay for KLF5 inhibitors: dose response cell-based high throughput screening assay to identify cytotoxic compounds using the IEC-6 intestinal epithelial cell line. [Related pubchem assays: 1700 (Primary screen.), 1834 (Confirmation screen.), 1858 (Summary AID.), 1905 (Counterscreen.)]", "format": "functional"}, "[20]": {"target": "Mothers against decapentaplegic homolog 3 (Homo sapiens, UniProt P84022)", "sequence (P84022 whole entry)": "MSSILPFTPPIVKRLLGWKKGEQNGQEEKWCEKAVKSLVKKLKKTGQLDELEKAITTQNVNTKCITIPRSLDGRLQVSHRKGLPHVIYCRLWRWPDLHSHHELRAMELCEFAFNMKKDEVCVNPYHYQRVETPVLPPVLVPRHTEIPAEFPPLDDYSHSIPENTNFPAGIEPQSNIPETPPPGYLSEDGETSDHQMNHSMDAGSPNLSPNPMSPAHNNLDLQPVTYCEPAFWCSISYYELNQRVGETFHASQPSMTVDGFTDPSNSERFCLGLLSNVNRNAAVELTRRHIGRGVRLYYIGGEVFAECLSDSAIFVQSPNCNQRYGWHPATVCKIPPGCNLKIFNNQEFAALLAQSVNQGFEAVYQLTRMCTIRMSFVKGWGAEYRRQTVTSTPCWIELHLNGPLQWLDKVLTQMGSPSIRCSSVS", "test": "Smad3 binding inhibitors, lysate ELISA, dose response, cell lysate, secondary confirmation, chemiluminescent ELISA, HEK293 lysate (AID 1058)", "format": "functional"}}, "note": "Active and inactive are the calls of the source.", "data": [{"molecule": "CCC(C)(C)C1CCc2n[nH]c(C(=O)NCCN3CCOCC3)c2C1", "note": "(centres undefined)", "values": [{"measurement": "AC50", "setting": "[1]", "result": "20.9 µM (active)"}]}, {"molecule": "CCOC(=O)OCC1OC(c2ccccc2)C=CC1Oc1ccc(F)cc1C", "note": "(centres undefined)", "values": [{"measurement": "AC50", "setting": "Cytochrome P450 2C9", "result": "3.16 µM (inconclusive)"}]}, {"molecule": "CC(C)C(=O)NNc1ccc(C(F)(F)F)cn1", "values": [{"measurement": "EC50", "setting": "[2]", "result": "> 55.7 µM (not active)"}, {"measurement": "EC50", "setting": "[3]", "result": "> 55.7 µM (not active)"}]}, {"molecule": "CC1(C(=O)O)CCC(C(=O)Nc2ccc3ccccc3c2)C1(C)C", "note": "(centres undefined)", "values": [{"measurement": "IC50", "setting": "Leucine aminopeptidase", "result": "12.5 µM (active)"}, {"measurement": "CC50", "setting": "[4]", "result": "> 100 µM (active)"}]}, {"molecule": "CCCCOC(=O)c1ccc2c(c1)C1C=CCC1C(C(=O)O)N2", "note": "(centres undefined)", "values": [{"measurement": "IC50", "setting": "[5]", "result": "4.02 µM (active)"}, {"measurement": "IC50", "setting": "[6]", "result": "10.4 µM (active)"}, {"measurement": "IC50", "setting": "[7]", "result": "> 100 µM (not active)"}, {"measurement": "IC50", "setting": "[8]", "result": "76.6 µM (active)"}, {"measurement": "IC50", "setting": "[9]", "result": "41.8 µM (active)"}, {"measurement": "IC50", "setting": "[10]", "result": "63.3 µM (active)"}]}, {"molecule": "COc1ccc(N/N=C/c2c(C(=O)O)ccc3ccccc23)cc1", "values": [{"measurement": "AC50", "setting": "INS1", "result": "0.786 µM (active)"}, {"measurement": "EC50", "setting": "cells [11]", "result": "9.66 µM (active)"}, {"measurement": "CC50", "setting": "[12]", "result": "2 µM (active)"}, {"measurement": "AC50", "setting": "[13]", "result": "5.11 µM (active)"}, {"measurement": "CC50", "setting": "[14]", "result": "0.364 µM (active)"}, {"measurement": "IC50", "setting": "[15]", "result": "> 80 µM (inactive)"}, {"measurement": "CC50", "setting": "[16]", "result": "4.9 µM (active)"}, {"measurement": "EC50", "setting": "[17]", "result": "9.27 µM (active)"}, {"measurement": "AC50", "setting": "HEK293", "result": "4.56 µM (active)"}, {"measurement": "EC50", "setting": "cells [18]", "result": "> 350 µM (not active)"}, {"measurement": "IC50", "setting": "[19]", "result": "37 µM (not active)"}]}, {"molecule": "O=C(O)CCc1ccc(O)c(O)c1", "note": "[DIHYDROCAFFEIC ACID]", "values": [{"measurement": "IC50", "setting": "[20]", "result": "> 50 µM (not active)"}]}]}
